# According to patent publication US20100260772A1, “METHODS FOR TREATING OR PREVENTING DISEASES ASSOCIATED WITH LOW BONE MASS” (THE TRUSTEES OF COLUMBIA UNIVERSITY IN THE CITY OF NEW YORK, priority 2007, published 2010):
# Key:
# [1] = test system: Tph2 expression in brainstem; assay: Leptin injection, Tph2 expression in brainstem; format: in vivo, mice
# [2] = test system: neuropeptides Y (Npy), a leptin target gene in arcuate neurons; assay: Leptin injection, Npy expression (internal control); format: in vivo, mice; conditions: same leptin injection
# Text: Next, we injected i.p […] of leptin and studied its effects on Tph2 expression 4 and […]. We also measured the brain concentration of serotonin in leptin knockouts (ob/ob mice). FIG. 5. […] FIG. 15. […] FIG. 5. […] Serotonin neurons in the brain stem have the ObRb receptors that bind to leptin, and they project to the hypothalamus.
# [3] = test system: cfos expression in brain stems; assay: Leptin injection, cfos expression in brain stem; format: in vivo; conditions: following leptin injection
# Text: We know that expression of the leptin receptor ObRb is not restricted to hypothalamic neurons and can be found in particular in serotonin-producing neurons of the brainstem that also express Tph2. […] This latter result means that leptin's first site of action in the brain is not, at least as far as controlling bone mass is concerned, the hypothalamus but rather the brainstem where serotonergic neurons are localized.
substance,measurement,setting,value
leptin: endogenous polypeptide product of an ob gene,Tph2 expression in brain stem (in words),"[1]; leptin injection (ICV, FIG. 7)",decreases Tph2 expression
same,decrease of Tph2 expression in brainstem,"[1]; leptin injection i.c.v., FIG. 15",approximately 50%
same,expression of neuropeptides Y (Npy),[2],decreased
same,cfos expression in brain stems,[3],increased cfos expression
